The values that follow come from US20220289720A1, “ARYL SULFONAMIDES AS SMALL MOLECULE STAT3 INHIBITORS” (UNIVERSITY OF HAWAII, priority 2019, published 2022).

One data set addresses Stat3 (Mus musculus, UniProt P42227). The experiment in a line: Stat3 DNA-binding activity in vitro, electrophoretic mobility shift assay (EMSA) on nuclear extracts. The format is biochemical. As to conditions: nuclear extracts containing activated Stat3 pre-incubated with compound 30 min at room temperature, radiolabeled hSIE probe. Here is the method: FIGS. 3A-3D. show the effect of aryl sulfonamido compounds described herein on Stat3 DNA-binding activity in vitro. […] Positions of Stat3:DNA complexes in gel are labeled; control lanes (0) represent nuclear extracts pre-treated with 10% DMSO.
Nuclear extract preparation, gel shift assays, and densitometric analysis. […] Except where indicated, nuclear extracts were pre-incubated with compound for 30 min at room temperature prior to incubation with the radiolabeled probe for 30 min at 30° C. before subjecting to EMSA analysis. Where appropriate, bands corresponding to Stat3:DNA complexes were scanned and quantified for each concentration of compound using ImageJ and plotted as percent of control (DMSO) against concentration of compound, from which the IC50 values were derived.
The inhibitory activities of the representative analogs against in vitro Stat3 DNA-binding activity, as measured by electrophoretic mobility shift assay (EMSA) for representative compounds from the Examples above are shown in FIGS. 3A-3D and summarized in Table 1.
Table 1. Stat3 DNA-binding activity in vitro of aryl sulfonamido compounds described herein, including their corresponding referenced names (e.g., H203), as measured by electrophoretic mobility shift assay (EMSA). The inhibition metrics are presented in units of micromolar (μM).

Data set [1] has as its system Stat3 DNA-binding activity in MDA-MB-231 cells. The experiment in a line: EMSA of nuclear extracts from treated human breast cancer cells (intracellular Stat3 signaling). The data set is classed as cell-based. The following applies: 0.5, 1, 2, 3, 4, 5 and 10 μM, 0-72 h. Here is the method:
Nuclear extract preparation, gel shift assays, and densitometric analysis. […] The ^32P-labeled oligonucleotide probes used were hSIE (high affinity sis-inducible element from the c-fos gene, m67 variant, 5′-[…]) (SEQ ID NO: 1) that binds Stat1 and Stat3 and MGFe (mammary gland factor element from the bovine β-casein gene promoter, 5′-[…]) (SEQ ID NO: 2) for Stat1 and Stat5 binding. Except where indicated, nuclear extracts were pre-incubated with compound for 30 min at room temperature prior to incubation with the radiolabeled probe for 30 min at 30° C. before subjecting to EMSA analysis. Where appropriate, bands corresponding to Stat3:DNA complexes were scanned and quantified for each concentration of compound using ImageJ and plotted as percent of control (DMSO) against concentration of compound, from which the IC50 values were derived.
Aryl sulfonamido azetidine compounds were investigated for their inhibitory effects of the active analogs on intracellular Stat3 signaling. […] Nuclear extracts are prepared and subjected to EMSA analysis for Stat3 DNA-binding activity. […] Stat3 DNA-binding activity in MDA-MB-231 cells, is inhibited by the compounds following treatment as measured periodically up to 72 h.
On the technique in general: Mobility shift assays separate free from complexed probe on a gel.

The test system of another data set is MDA-MB-231. The data set can be described thus: Cell growth by trypan blue exclusion/phase-contrast microscopy. The data set is classed as cell-based. As to conditions: Homo sapiens, MDA-MB-231, read-out: IC50, MDA-MB-231 cell growth. Here is the method: FIGS. 1A-1N. Show the effects of aryl sulfonamido azetidine compounds on cell viability in vitro relative to control (untreated cells). […] Cells in 6-well plates were treated once with 0.05% DMSO, or at the indicated concentrations (0.5, 1, 2, 3, 4, 5 and 10 μM if not otherwise so indicated) of the test compounds. […] The compound names are correlated with the structures provided in the Examples in Table 1.
Cell proliferation and viability assay. […] Cells in 6-well or 96-well plates were treated with or without compounds for the indicated concentrations and time, and subjected to MTT assay or CyQuant cell proliferation assay (Invitrogen/ThermoFisher Scientific), or harvested and the viable cells were counted by trypan blue exclusion with phase-contrast microscopy.
Constitutive Stat3 activity promotes tumor cell growth and proliferation and survival (Darnell J E (2005) Nat Med. 11:595-6; Bowman T, et al., (2000) Oncogene 19:2474-2488). An aryl sulfonamido azetidine compound, H182, was tested against tumor cells harboring constitutively-active Stat3.

Data set [2] concerns subcutaneous MDA-MB-231 tumor xenografts. The data set can be described thus: Growth of subcutaneous MDA-MB-231 tumor xenografts. The data set is classed as in vivo, mouse. As to conditions: 10 mg/kg every other day, intraperitoneally, vs vehicle control. Here is the method: (§1) (5 mice per group). The subjects were administered intraperitoneally.
Data set [3] in a line: Body weight of treated mice in the xenograft study. The data set is classed as in vivo, mouse. The following applies: 10 mg/kg every other day, intraperitoneally, treated vs untreated mice. Here is the method:
as §1

Chain of Stat3 (P42227 2-770): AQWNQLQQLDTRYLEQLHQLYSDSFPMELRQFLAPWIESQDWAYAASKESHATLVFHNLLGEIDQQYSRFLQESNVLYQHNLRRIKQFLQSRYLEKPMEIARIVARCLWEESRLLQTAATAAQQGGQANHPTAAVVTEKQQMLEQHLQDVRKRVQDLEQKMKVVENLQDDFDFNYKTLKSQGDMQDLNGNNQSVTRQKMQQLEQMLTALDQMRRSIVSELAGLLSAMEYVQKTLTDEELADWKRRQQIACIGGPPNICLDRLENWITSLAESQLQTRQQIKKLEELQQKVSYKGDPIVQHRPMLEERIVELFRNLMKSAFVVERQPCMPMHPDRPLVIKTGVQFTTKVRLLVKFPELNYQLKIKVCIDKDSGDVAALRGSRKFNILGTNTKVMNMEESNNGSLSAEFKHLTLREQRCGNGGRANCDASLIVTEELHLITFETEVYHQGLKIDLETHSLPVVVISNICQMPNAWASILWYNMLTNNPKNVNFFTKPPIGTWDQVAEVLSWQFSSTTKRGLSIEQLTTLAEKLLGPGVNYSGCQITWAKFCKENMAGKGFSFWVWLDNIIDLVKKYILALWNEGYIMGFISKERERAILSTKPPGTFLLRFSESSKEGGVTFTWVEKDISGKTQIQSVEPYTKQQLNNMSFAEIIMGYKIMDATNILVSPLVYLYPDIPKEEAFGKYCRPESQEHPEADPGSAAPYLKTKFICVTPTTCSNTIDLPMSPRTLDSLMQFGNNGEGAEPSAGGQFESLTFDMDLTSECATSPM

One may read the IC50 as the concentration that inhibits the measured activity by half. On to `Cn1ccc2cc(N(Cc3ccc(C4CCCCC4)cn3)C(=O)[C@H]3CCN3S(=O)(=O)c3c(F)c(F)c(F)c(F)c3F)ccc2c1=O` [Example 22, (R)—N-((5-cyclohexylpyridin-2-yl)methyl)-N-(2-methyl-1-oxo-1,2-dihydroisoquinolin-6-yl)-1-((perfluorophenyl)sulfonyl)azetidine-2-carboxamide], for which the concentration for half-maximal inhibition (IC50) on Stat3 amounted to 0.866 ± 0.085 µM.

Turning to `Cn1cnc2cc(N(Cc3ccc(C4CCCCC4)cn3)C(=O)[C@H]3CCN3S(=O)(=O)c3c(F)c(F)c(F)c(F)c3F)ccc2c1=O` [Example 23, (R)—N-((5-cyclohexylpyridin-2-yl)methyl)-N-(3-methyl-4-oxo-3,4-dihydroquinazolin-7-yl)-1-((perfluorophenyl)sulfonyl)azetidine-2-carboxamide], the IC50 at Stat3 amounted to 1.15 ± 0.04 µM.

Consider `O=C([C@H]1CCN1S(=O)(=O)c1c(F)c(F)c(F)c(F)c1F)N(Cc1ccc(C2CCCCC2)cn1)c1ccc2c(=O)[nH]ccc2c1` [Example 25, (R)—N-((5-cyclohexylpyridin-2-yl)methyl)-N-(1-oxo-1,2-dihydroisoquinolin-6-yl)-1-((perfluorophenyl)sulfonyl)azetidine-2-carboxamide], for which, on Stat3, the IC50 came to 0.788 ± 0.039 µM.

`O=C([C@H]1CCN1S(=O)(=O)c1c(F)c(F)c(F)c(F)c1F)N(Cc1ccc(C2CCCCC2)nc1)c1ccc2c(=O)[nH]ncc2c1` [Example H172]: in data set [1], the “Stat3 DNA-binding activity in MDA-MB-231 cells” value is “inhibited”.

On to `O=C([C@H]1CCN1S(=O)(=O)c1c(F)c(F)c(F)c(F)c1F)N(Cc1ccc(C2CCCCC2)cn1)c1ccc2c(=O)[nH]cnc2c1` [Example H182], for which the “Stat3 DNA-binding activity in MDA-MB-231 cells” value in data set [1] is recorded as “inhibited”. Further, the 50% inhibitory concentration (IC50) with MDA-MB-231 was less than 10 µM. The tumor growth result in data set [2] is “reduce the tumor growth rate”. In addition, the body weight entry in data set [3] is listed as “maintaining subject body weight”.
